Assay results as given in patent US6734292B1, “Pseudoerythromycin derivatives” (The Kitasato Institute, priority 2002, dated 2004).

Tested on: THP-1 cells
Test: enhancing effect for differentiation-induction from human monocyte to macrophage (THP-1/Mφ system, MTT readout)
Format: cell-based
Parameters: key: ++: enhanced 100% or more; +: enhanced 50-100%; ±: enhanced 25-50%; −: no activity; /: expressed cytoxicity; NT: not tested or under assessment
Conditions: in comparison with enhancing action for differentiation-induction of EM 100 μM
Procedure: In order to confirm enhancing effect for differentiation-induction of the compounds of the present invention, the enhancing effect for differentiation-induction from human monocyte to macrophage was assayed. Method is performed as follows. THP-1 cells were collected from cultured liquid by centrifugation, adjusted the concentration to 2×10^5 cells/ml using medium (RPMI 1640) and distributed into the 48-well plate at 500 μl/well. PMA solution 10 μl and sample solution 5 μl were added in each well, stirred with mild shaking and incubated at 37° C. for 72-96 hours under 5% CO2. Further MTT 0.5 mg/ml solution was added at 300 μl/well, and incubated at 37° C. for 3 hours under 5% CO2. Supernatant solution was suctioned using the injection tube, added DMSO 500 μl using automatic continuous injector to dissolve formazan completely and transferred each 100 μl to the 96-well plate. The optical absorption was measured using the plate-reader.

Structure (SMILES)	activities in THP-1/Mφ system, Treated conc. 0.3 μM	activities in THP-1/Mφ system, Treated conc. 1 μM	activities in THP-1/Mφ system, Treated conc. 3 μM	activities in THP-1/Mφ system, Treated conc. 10 μM	activities in THP-1/Mφ system, Treated conc. 30 μM
CCCNC1CC(C)OC(OC2C(C)C(OC3CC(C)(OC)C(O)C(C)O3)C(C)C(=O)OC(C(C)(O)C(O)CC)C(C)C3=C(C)CC2(C)O3)C1O (centres unmarked) [EM730, bis-de(3′-N-methyl)-3′-N-propyl-8,9-anhydro-pseudoerythromycin A 6,9-hemiketal]	+ (enhanced 50-100%)	+ (enhanced 50-100%)	+ (enhanced 50-100%)		
CCC(O)C(C)(O)C1OC(=O)C(C)C(OC2CC(C)(OC)C(O)C(C)O2)C(C)C(OC2OC(C)CC(N(C)CCF)C2O)C2(C)CC(C)=C(O2)C1C (centres unmarked) [EM740]	± (enhanced 25-50%)	± (enhanced 25-50%)	+ (enhanced 50-100%)	+ (enhanced 50-100%)	+ (enhanced 50-100%)
CCC(O)C(C)(O)C1OC(=O)C(C)C(O)C(C)C(OC2OC(C)CC(NC)C2O)C2(C)CC(C)=C(O2)C1C (centres unmarked) [EM754, de(3-O-cladinosyl) -de(3′-N-methyl) -8,9-anhydrous-pseudoerythromycin A 6,9-hemiketal]		−	−		+ (enhanced 50-100%)
CC[C@@H](O)[C@@](C)(O)[C@@H]1OC(=O)[C@H](C)[C@@H](O[C@H]2C[C@@](C)(OC)[C@@H](O)[C@H](C)O2)[C@H](C)[C@@H](O[C@@H]2O[C@H](C)C[C@H](NC(C)C)[C@H]2O)[C@@]2(C)CC(C)=C(O2)[C@@H]1C [EM736, bis-de(3′-N-methyl)-3′-N-(2-propyl)-8,9-anhydro-pseudoerythromycin A 6,9-hemiketal]	−	± (enhanced 25-50%)	+ (enhanced 50-100%)	++ (enhanced 100% or more)	
COC1(C)CC(OC2C(C)C(=O)OC(C(C)N)C(C)C3=C(C)CC(C)(O3)C(OC3OC(C)CC(N(C)C)C3O)C2C)OC(C)C1O (centres unmarked) [EM750, de(12-hydroxy)-de[12-(hydroxypropyl)]-12-amino-8,9-anhydro-pseudoerythromycin A 6,9-hemiketal]		−	−	± (enhanced 25-50%)	
CCC(O)C(C)(O)C1OC(=O)C(C)C(OC2CC(C)(OC)C(O)C(C)O2)C(C)C(OC2OC(C)CC(N(Cc3ccccc3)Cc3ccccc3)C2O)C2(C)CC(C)=C(O2)C1C (centres unmarked) [EM733, bis-de(3′-N-methyl)-3′,3′-N,N-di-benzyl-8,9-anhydro-pseudoerythromycin A 6,9-hemiketal]	−	± (enhanced 25-50%)	± (enhanced 25-50%)		
CCC(O)C(C)(O)C1OC(=O)C(C)C(OC2CC(C)(OC)C(O)C(C)O2)C(C)C(OC2OC(C)CC(N(CCCCCCCCCCBr)CCCCCCCCCCBr)C2O)C2(C)CC(C)=C(O2)C1C (centres unmarked) [EM749, bis-de(3′-N-methyl)-3′,3′-N,N-di-(10-bromo-1-decanyl)-8,9-anhydro-pseudoerythromycin A 6,9-hemiketal]		± (enhanced 25-50%)	+ (enhanced 50-100%)	+ (enhanced 50-100%)	/insolule
CC[C@H]1OC(=O)[C@H](C)[C@@H](O[C@H]2C[C@@](C)(OC)[C@@H](O)[C@H](C)O2)[C@H](C)[C@@H](O[C@@H]2O[C@H](C)C[C@H](N(C)C)[C@H]2O)[C@](C)(OC)C[C@@H](C)C(=O)[C@H](C)[C@@H](O)[C@]1(C)O [CAM, reference compound]			−	+ (enhanced 50-100%)	−
C=CCN(CC=C)C1CC(C)OC(OC2C(C)C(OC3CC(C)(OC)C(O)C(C)O3)C(C)C(=O)OC(C(C)(O)C(O)CC)C(C)C3=C(C)CC2(C)O3)C1O (centres unmarked) [EM725, bis-de(3′-N-methyl)-3′,3′-N,N-diallyl-8,9-anhydro-pseudoerythromycin A 6,9-hemiketal]		−	± (enhanced 25-50%)	+ (enhanced 50-100%)	
CC[C@H]1OC(=O)[C@H](C)[C@@H](O[C@H]2C[C@@](C)(OC)[C@@H](O)[C@H](C)O2)[C@H](C)[C@@H](O[C@@H]2O[C@H](C)C[C@H](N(C)C)[C@H]2O)[C@](C)(O)C[C@@H](C)C(=O)[C@H](C)[C@@H](O)[C@]1(C)O [EM, Erythromycin]		−	± (enhanced 25-50%)	+ (enhanced 50-100%)	+ (enhanced 50-100%)
CC[C@@H](O)[C@@](C)(O)[C@@H]1OC(=O)[C@H](C)[C@@H](O[C@H]2C[C@@](C)(OC)[C@@H](O)[C@H](C)O2)[C@H](C)[C@@H](O[C@@H]2O[C@H](C)C[C@H](N(CC)CC)[C@H]2O)[C@@]2(C)CC(C)=C(O2)[C@@H]1C [EM723, bis-de(3′-N-methyl)-3′,3′-N,N-diethyl-8,9-anhydro-pseudoerythromycin A 6,9-hemiketal]	−	+ (enhanced 50-100%)	+ (enhanced 50-100%)		
CC[C@H]1OC(=O)[C@H](C)[C@@H](O[C@H]2C[C@@](C)(OC)[C@@H](O)[C@H](C)O2)[C@H](C)[C@@H](O[C@@H]2O[C@H](C)C[C@H](N(C)C)[C@H]2O)[C@](C)(O)C[C@@H](C)C(=NO)[C@H](C)[C@@H](O)[C@]1(C)O [EM oxim, reference compound]		−	± (enhanced 25-50%)	± (enhanced 25-50%)	++ (enhanced 100% or more)
CCNC1CC(C)OC(OC2C(C)C(OC3CC(C)(OC)C(O)C(C)O3)C(C)C(=O)OC(C(C)(O)C(O)CC)C(C)C3=C(C)CC2(C)O3)C1O (centres unmarked) [EM722, bis-de(3′-N-methyl)-3′-N-ethyl-8,9-anhydro-pseudoerythromycin A 6,9-hemiketal]	−	+ (enhanced 50-100%)	+ (enhanced 50-100%)	++ (enhanced 100% or more)	
CCC(O)C(C)(O)C1OC(=O)C(C)C(OC2CC(C)(OC)C(O)C(C)O2)C(C)C(OC2OC(C)CC(NCc3ccccc3)C2O)C2(C)CC(C)=C(O2)C1C (centres unmarked) [EM732, bis-de(3′-N-methyl)-3′-N-benzyl-8,9-anhydro-pseudoerythromycin A 6,9-hemiketal]	+ (enhanced 50-100%)	+ (enhanced 50-100%)	+ (enhanced 50-100%)	+ (enhanced 50-100%)	
CC[C@@H](O)[C@@](C)(O)[C@@H]1OC(=O)[C@H](C)[C@@H](O[C@H]2C[C@@](C)(OC)[C@@H](O)[C@H](C)O2)[C@H](C)[C@@H](O[C@@H]2O[C@H](C)C[C@H](N(C)CCOC(C)=O)[C@H]2O)[C@@]2(C)CC(C)=C(O2)[C@@H]1C [EM745, de(3′-N-methyl)-3′-N-(2-acetoxyethyl)-8,9-anhydro-pseudoerythromycin A 6,9-hemiketal]	−	−	++ (enhanced 100% or more)	++ (enhanced 100% or more)	++ (enhanced 100% or more)
CCC(O)C(C)(O)C1OC(=O)C(C)C(OC2CC(C)(OC)C(O)C(C)O2)C(C)C(OC2OC(C)CC(N(C)S(C)(=O)=O)C2O)C2(C)CC(C)=C(O2)C1C (centres unmarked) [EM727, de(3′-N-methyl)-3′-N-sulfonyl-8,9-anhydro-pseudoerythromycin A 6,9-hemiketal]	−	+ (enhanced 50-100%)	+ (enhanced 50-100%)	+ (enhanced 50-100%)	
C#CCNC1CC(C)OC(OC2C(C)C(OC3CC(C)(OC)C(O)C(C)O3)C(C)C(=O)OC(C(C)(O)C(O)CC)C(C)C3=C(C)CC2(C)O3)C1O (centres unmarked) [EM728, bis-de(3′-N-methyl)-3′-N-propargyl-8,9-anhydro-pseudoerythromycin A 6,9-hemiketal]	−	+ (enhanced 50-100%)	+ (enhanced 50-100%)	+ (enhanced 50-100%)	+ (enhanced 50-100%)
CCC(O)C(C)(O)C1OC(=O)C(C)C(OC2CC(C)(OC)C(O)C(C)O2)C(C)C(OC2OC(C)CC(N3CCCC3)C2O)C2(C)CC(C)=C(O2)C1C (centres unmarked) [EM735, de(3′-dimethylamino)-3′-pyrrolidino-8,9-anhydro-pseudoerythromycin A 6,9-hemiketal]	−	± (enhanced 25-50%)	+ (enhanced 50-100%)	++ (enhanced 100% or more)	
